Our source for the GI50 and TGI values is PubChem BioAssay (NCI).

Molecules are shown by their SMILES.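 Step 1: Grow cells in 96-well plates. Step 2: Expose to compound for 48 hours at 5 concentrations. Step 3: Interpolate endpoints linearly; if unreached, use highest concentration. GI50: concentration for 50% inhibition of growth. TGI denotes the concentration required for complete inhibition of growth.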

Holding throughout (assay): NCI tumour cell line growth inhibition, 48 h
Assay [1] has as its system UACC-62 melanoma.
Assay [2] concerns CCRF-CEM leukemia.
For assay [3], the system named is OVCAR-5 ovarian.
The test system of assay [4] is NCI-H226 lung.
Assay [5] relates to HT29 colon.
The test system of assay [6] is M14 melanoma.
In assay [7] the test system is EKVX NSCLC.
Assay [8] concerns SK-MEL-2 melanoma.
The test system of assay [9] is TK-10 renal.
Assay [10] deals with HCT-15 colon.

With `CCCc1cc2c(=O)c(C(=O)OC)c[nH]c2cc1N(CC)CC`, the GI50 in assay [1] was more than 100 µM; in [2], 85.8 µM; in assay [3] it was more than 100 µM; in assay [4], 34.6 µM; in assay [5], 72.1 µM; in assay [6] it was 57 µM. Further, the GI50 in [7] was 16.9 µM; in assay [8], 36.1 µM; in [9], 69.1 µM; in assay [10] it was 76.7 µM. Moreover, the TGI in assay [1], in assay [2], in assay [3], in [4], in assay [5] and in [6] was more than 100 µM each time. For the same compound, the TGI in [7] was 42.7 µM; in assay [8], 97.8 µM; in [9] it was more than 100 µM; in assay [10], more than 100 µM.
With `O=C(CC1(O)C(=O)Nc2c(Cl)ccc(Cl)c21)c1ccc2ccccc2c1` (stereo not given), the TGI in [1] is 10.7 µM; in assay [2] it was more than 100 µM; in assay [3], 39.5 µM; in [4] it was 39.1 µM; in assay [5], 8.61 µM; in [6] it was 21.3 µM. Moreover, the TGI in [7] stood at 31 µM; in [8], 26.3 µM; in [9], 44.4 µM; in assay [10], 27 µM.
For the compound `O=C(c1ccco1)c1nc2cc(Cl)ccc2[n+]([O-])c1C(F)(F)F`, the GI50 in assay [1] was 40.7 µM; in assay [2], 0.0182 µM; in [3], more than 100 µM; in assay [4], 33.2 µM; in assay [5] it was 52.9 µM; in assay [6], 59.1 µM. The GI50 in [7] is 37.6 µM; in assay [8], more than 100 µM; in [9] it was 44.1 µM; in assay [10] it was 32.7 µM. Besides, the TGI is more than 100 µM in assay [1]; 0.443 µM in assay [2]; more than 100 µM in assay [3]; more than 100 µM in assay [4]; more than 100 µM in [5]; more than 100 µM in assay [6]. In addition, the TGI in assay [7], in [8], in assay [9] and in assay [10] was more than 100 µM each time.
For `CCC/C(=N/NC(=O)C(N)=O)C(CC)C(=O)CCC(=O)N(Cc1ccccc1)Cc1ccccc1` (stereo not given), the TGI in assay [1], in assay [2], in assay [3], in assay [4], in assay [5] and in [6] was more than 100 µM each time. Also, the TGI in assay [7], in [8], in assay [9] and in assay [10] was more than 100 µM each time.
Regarding `O=C(Nc1cccc(Cl)c1)c1ccc(NC2=C(Cl)C(=O)N(Cc3ccccc3)C2=O)cc1`, the GI50 in assay [1] is 11.6 µM; in assay [2], 0.436 µM; in [3], 24.8 µM; in assay [4] it was 14.8 µM; in assay [5] it was 8.43 µM; in assay [6] it was 16.6 µM. Further, the GI50 was more than 46 µM in assay [7], 18.9 µM in [8], 16.4 µM in assay [9] and 1.98 µM in assay [10]. The TGI is 25.4 µM in assay [1]; 1.44 µM in assay [2]; more than 61.6 µM in [3]; 31 µM in assay [4]; more than 100 µM in assay [5]; 37.3 µM in assay [6]. Also, the TGI is more than 69.3 µM in assay [7], more than 100 µM in [8], 49.5 µM in assay [9] and 4.76 µM in assay [10].
For the compound `CC(=O)[CH-]C(=O)c1ccccc1.CC(=O)[CH-]C(=O)c1ccccc1.CC1(C)C2CCC1(C)C([O-])C2.CC1(C)C2CCC1(C)C([O-])C2.[Ti+4]`, the GI50 in assay [1] is 16.7 µM; in [2] it was 25.1 µM; in assay [3], more than 100 µM; in assay [4], 23.2 µM; in assay [5] it was 56.7 µM; in assay [6], 20.4 µM. Further, the GI50 in assay [7] is 69.6 µM; in assay [8] it was 14.2 µM; in assay [9], 53.5 µM; in [10], 30.9 µM. The TGI was 51.3 µM in [1]; more than 100 µM in assay [2]; more than 100 µM in [3]; 90.7 µM in assay [4]; more than 100 µM in assay [5]; 44.1 µM in assay [6]. Moreover, the TGI was more than 100 µM in assay [7], 29.6 µM in assay [8], more than 100 µM in [9] and more than 100 µM in assay [10].
On to `CCC1(c2c(F)c(F)c(N)c(F)c2F)CCC(=O)NC1=O` (stereo not given), for which the TGI in assay [1], in assay [2], in [3], in assay [4], in assay [5] and in assay [6] was more than 100 µM each time. The TGI in assay [7], in assay [8], in assay [9] and in assay [10] was more than 100 µM each time.
For `O=C1NC(=O)C2C(=O)NC(=O)C1C2(c1ccccc1)c1cc[nH]c1` (stereo not given), the TGI in assay [1], in assay [2], in assay [3], in assay [4], in assay [5] and in [6] was more than 100 µM in each case. Besides, the TGI in [7], in assay [8], in [9] and in assay [10] was more than 100 µM in each case.
For `N[C@@H]1CCCC[C@H]1N.O=C([O-])C(=O)[O-].[Pt+4]`, the GI50 in assay [1] was 2.2 µM; in assay [2], 0.35 µM; in assay [3], 0.671 µM; in assay [4], 2.55 µM; in assay [5], 0.175 µM; in [6], 7.22 µM. Further, the GI50 in [7] was 88.7 µM; in assay [8], 5.15 µM; in assay [9] it was 21.2 µM; in assay [10], 0.646 µM. Moreover, the TGI was 23.5 µM in assay [1]; more than 100 µM in assay [2]; 21.2 µM in [3]; 17 µM in assay [4]; more than 8.25 µM in assay [5]; 45.1 µM in assay [6]. The TGI in assay [7] was more than 100 µM; in assay [8] it was 52.9 µM; in assay [9] it was 74 µM; in assay [10] it was more than 64.9 µM.
